Entries after “also recorded” stand apart in the source; their conditions may differ. Marks after values point to notes of the source that are not given here.
Experiments:
[1] = Superoxide radical scavenging activity (non-enzymatic, PMS/NADH, NBT method); settings: 100 μM
Text: Superoxide anion radical is an active form of oxygen, and it is the product of the one-electron reduction of […] oxygen. Herein, superoxide radicals were formed by mixing phenazine methosulfate (PMS) with NADH and air-oxygen. The production of radicals was estimated with the nitroblue-tetrazolium method (NBT). From the tested pyrroles, Compounds 2i and 2iii were equipotent (57%) scavengers. […] In contrast, the dipole moment appeared to be important. The values of the dipole, as calculated by the program Spartan v.5.1.3.
The superoxide anion radicals were produced non-enzymatically by mixing phenazine methosulfate (PMS) with NADH and air-oxygen. The production of superoxide radicals was estimated with the nitroblue-tetrazolium (NBT) method with 3 μΜ PMS, 78 μΜ NADH and 25 μΜ NBT in 19 μΜ phosphate buffer pH 7.4. The absorbance was measured at 560 nm at room temperature. The tested compounds were added in the mixture 2 min before the addition of NADH [52].

[2] = Inhibition of heme-dependent lipid peroxidation of linoleic acid (TBA method); settings: pH 7.4, 37 °C; read-out: LP IC50 (inhibition of heme-dependent lipid peroxidation of linoleic acid)
Description: The anti-lipid peroxidation activity was determined through the inhibition of heme-dependent lipid peroxidation. The peroxidation of sodium linoleate is induced from a mixture of heme and hydrogen peroxide, which produces free radicals from the side chains of amino acids. The assay is performed at pH 7.4 with a phosphate buffer, and the products of peroxidation are identified with the thiobarbituric acid method (TBA). In particular, malonic dialdehyde, a final product of lipid peroxidation, reacts with TBA and forms a colored product, whose absorbance is measured at 535 nm. […] Compounds 2ii and 2vi with low Clog P values are weak inhibitors of lipid peroxidation. It seems that the increase of volume of Ar^1, measured as molar refractivity MR (Ar^1), enhances IC50 values and reduces the inhibitory activity (2i and 2iii; and 2ii, 2iv and 2vi). For derivatives 2iv and 2v, the presence of an electron-acceptor, e.g., a chloro-substituent on the phenyl ring (Ar^2), diminishes the anti-lipid peroxidation activity.
Firstly, 0.4 mL of heme (50 μΜ), 0.25 mL of sodium linoleate (400 μΜ), 0.1 mL of the solutions of the tested compounds (concentrations varying from 10–100 μΜ in DMSO) and 0.25 mL of H2O2 (500 μΜ) were incubated for 10 min in 37 °C in a phosphate buffer (KH2PO4–KOH 50 mM, pH 7.4). The peroxidation products were identified with the reaction of thiobarbituric acid, by adding successively 0.5 mL of 40% trichloroacetic acid (TCA) and 0.5 mL of 2% of thiobarbituric acid (TBA). The addition was followed by stirring and heating at 90 °C for 20 min, and then, 1 mL of acetic acid and 1 mL of chloroform were added and the absorbance measured at 535 nm. IC50 values were determined.

[3] = tested on: carrageenan-induced rat paw edema; assay: Inhibition of rat paw edema induced by carrageenan; type: in vivo, Fischer 344 rats; settings: intraperitoneally, 3.5 h; for inhibition in vivo at 10 µmol/kg: Rattus norvegicus, ip, 0.01 mmol/kg body weight, read-out: CPE % inhibition of rat paw edema induced by carrageenan
Description: The pyrrolyl derivatives, as well as their precursor chalcones were tested in vivo for the inhibition of rat paw edema induced by carrageenan. […] […]. For Compounds 2i, 2iii, 2iv and 2v, we determined their ED50 values. […]. The finding supports the primary idea of this design.
Edema was induced in the right hind paw of Fischer 344 rats (150–200 g). In the study, both males and females were included, with the exemption of pregnant females. The animals, which have been bred in our laboratory, were housed under standard conditions and received a diet of commercial food pellets and water ad libitum during maintenance. One hour before the onset of the experiment, food and water were removed. The tested compounds (dose 0.01 mmol/kg body weight) were diluted in water with a few drops of Tween 80, and they were administered intraperitoneally simultaneously with the intradermal injection of 0.1 mL 2% of carrageenan in water. The animals were euthanatized 3.5 h after the carrageenan administration. The difference between the weight of injected and uninjected paws was calculated for each animal and was compared to control animals, which were treated with water. Indomethacin was used as a reference compound in 0.01 mmol/kg. The results were expressed as the percent inhibition of the edema (CPE %).

COX-2 = molecular target: T1, COX-2 (Homo sapiens, UniProt P35354); assay: Inhibition of cycloxygenase-2 (colorimetric TMPD assay); settings: for inhibition at 100 µM: read-out: COX-2 % inhibition; for COX-2 % inhibition: 100 μM
T1 sequence (P35354 18-604): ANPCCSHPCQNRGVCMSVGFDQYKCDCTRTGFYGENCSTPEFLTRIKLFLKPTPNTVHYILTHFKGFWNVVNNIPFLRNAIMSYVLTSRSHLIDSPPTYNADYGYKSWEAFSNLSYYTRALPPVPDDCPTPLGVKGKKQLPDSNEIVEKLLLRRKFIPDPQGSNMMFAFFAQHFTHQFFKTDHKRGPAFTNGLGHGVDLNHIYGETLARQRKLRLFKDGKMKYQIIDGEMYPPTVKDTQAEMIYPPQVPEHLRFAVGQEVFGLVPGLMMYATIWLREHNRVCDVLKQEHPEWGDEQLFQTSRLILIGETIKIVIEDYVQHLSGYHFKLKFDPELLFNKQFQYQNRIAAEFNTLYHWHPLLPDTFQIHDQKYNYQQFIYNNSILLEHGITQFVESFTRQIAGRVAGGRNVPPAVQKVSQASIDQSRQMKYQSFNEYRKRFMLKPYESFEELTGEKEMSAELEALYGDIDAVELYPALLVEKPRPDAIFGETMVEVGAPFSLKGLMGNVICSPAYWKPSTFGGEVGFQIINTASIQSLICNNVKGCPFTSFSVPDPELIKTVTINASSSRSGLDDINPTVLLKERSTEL
Description: The inhibition of COX-2, as a peroxidase, was determined by a colorimetric assay with the oxidation of N,N,N′,N′-tetramethyl-p-phenylenediamine (TMPD).
COX-2 inhibitory activity was determined by using arachidonic acid (AA) as a substrate in buffer (0.1 M Tris pH 8.5) and TMPD as a co-substrate.

[4] = Interaction with the stable free radical DPPH (reducing activity); settings: 1000 μM compound, DPPH 50 μM
Description: 2,2-Diphenyl-1-picrylhydrazyl (DPPH) is a lipophilic, free, stable radical, which absorbs at 517 nm (violet color). Upon reduction, decolorization is observed that is stoichiometric to the number of received electrons and is representative of the antioxidant ability of compounds. […] This interaction, which indicates their radical scavenging ability in an iron-free system, was measured at 100 and 1000 μM after 20 and 60 min, whereas the final concentration of DPPH was stable at 50 μΜ.
[…] The absorbance was measured at 517 nm after 20 and 60 min at room temperature.

COX-1 = COX-1 (Homo sapiens, UniProt P23219); assay: Inhibition of COX-1 (preliminary results); type: biochemical
Text: More experiments are in progress to delineate accurately the inhibition profile.

Chain of COX-1 (P23219 24-599): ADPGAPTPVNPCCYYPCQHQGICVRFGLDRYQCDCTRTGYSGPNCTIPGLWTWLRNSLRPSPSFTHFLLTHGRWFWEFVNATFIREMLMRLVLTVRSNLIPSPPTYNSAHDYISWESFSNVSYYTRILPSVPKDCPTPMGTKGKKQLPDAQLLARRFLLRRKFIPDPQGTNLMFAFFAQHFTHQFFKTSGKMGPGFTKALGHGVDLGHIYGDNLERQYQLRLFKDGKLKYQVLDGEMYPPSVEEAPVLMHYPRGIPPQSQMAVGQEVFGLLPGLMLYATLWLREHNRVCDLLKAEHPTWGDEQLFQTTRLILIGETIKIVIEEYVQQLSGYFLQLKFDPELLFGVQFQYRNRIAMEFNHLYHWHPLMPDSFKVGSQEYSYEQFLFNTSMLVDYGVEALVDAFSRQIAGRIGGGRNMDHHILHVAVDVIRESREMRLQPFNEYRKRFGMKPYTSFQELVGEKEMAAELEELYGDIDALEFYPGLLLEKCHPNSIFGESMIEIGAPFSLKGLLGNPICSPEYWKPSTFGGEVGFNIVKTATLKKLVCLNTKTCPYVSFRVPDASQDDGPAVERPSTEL

Compound | O2^•− % superoxide radical scavenging activity [1] | IC50 [2] [µM] | ED50 (carrageenan rat paw edema) [3] | inhibition at 100 µM (COX-2) [%] | RA % (interaction with DPPH) ([4]; 20 min) [%] | RA % (interaction with DPPH) ([4]; 60 min) [%] | inhibition at 100 µM (COX-1) [%] | inhibition in vivo at 10 µmol/kg [3] [%] | COX-2 % inhibition (COX-2)
O=C(c1cccs1)c1c[nH]cc1-c1cccc(Oc2ccccc2)c1 [Compound 2i, [4-(3-Phenoxyphenyl)-1H-pyrrol-3-yl](thien-2-yl)methanone] | 57% | 40 | 0.061 ^c mmol/kg Body Weight | 67.2 |  |  |  |  | 
O=C(c1cccs1)c1c[nH]cc1-c1ccc(OCc2ccc(Br)cc2)cc1 [Compound 2iii, (4-{4-[(4-Bromobenzyl)oxy]phenyl}-1H-pyrrol-3-yl)(thien-2-yl)methanone] | 57% | 100 | 0.052 mmol/kg Body Weight |  | 4 | 5 | 75 | 89 | inactive; also recorded: without any activity
O=C(c1ccccc1)c1c[nH]cc1-c1cccc2ccccc12 [Compound 2iv, [4-(Naphth-1-yl)-1H-pyrrol-3-yl](phenyl)methanone] | 76% | 72 |  |  | 8 | 10 |  | 75 | inactive
O=C(c1ccc(Cl)cc1)c1c[nH]cc1-c1cccc2ccccc12 [Compound 2v, (4-Chlorophenyl)[4-(naphth-1-yl)-1H-pyrrol-3-yl]methanone] | inactive | 150 | 0.063 mmol/kg Body Weight | 81 |  |  | 75 | 78 | 
